Data published in patent US10202361B2, “Pyridazinones as herbicides” (E I DU PONT DE NEMOURS AND COMPANY, priority 2014, dated 2019).

Legend:
Test in all cases: Test D pre-/postemergence controlled growth environment herbicide test
Type in all cases: in vivo
Conditions in all cases: scale 0 to 100
[1] = tested on: Russian thistle (Salsola kali)
Outline: (§1)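 Herbicidal effect, both preemergence (silt loam soil) and postemergence (1- to 4-leaf plants, peat-based medium), was scored 14–21 d post-treatment on a 0–100 control scale relative to untreated plants; applications used a non-phytotoxic solvent formulation with surfactant.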

[2] = tested on: oilseed rape (Brassica napus)
Outline: as §1

[3] = tested on: radish, wild (wild radish, Raphanus raphanistrum)
Outline: as §1

[4] = tested on: ryegrass, Italian (Italian ryegrass, Lolium multiflorum)
Outline: as §1

[5] = tested on: speedwell (bird's-eye speedwell, Veronica persica)
Outline: as §1

Measured: Plant response rating

Cc1cc(=O)n(-c2ccc(F)cc2)nc1Cc1ccnc(C(F)(F)F)c1 [Compound 1, 2-(4-fluorophenyl)-5-methyl-6-[[2-(trifluoromethyl)-4-pyridinyl]methyl]-3(2H)-pyridazinone]
5: [4]; Postemergence, 125 g ai/ha
20: [1]; Postemergence, 62 g ai/ha | [1]; Preemergence, 62 g ai/ha | [4]; Preemergence, 250 g ai/ha
75: [2]; Postemergence, 250 g ai/ha | [2]; Preemergence, 250 g ai/ha | [3]; Preemergence, 62 g ai/ha
35: [2]; Postemergence, 31 g ai/ha | [3]; Postemergence, 125 g ai/ha
80: [2]; Postemergence, 500 g ai/ha | [5]; Postemergence, 62 g ai/ha
100: [1]; Preemergence, 125 g ai/ha | [1]; Preemergence, 250 g ai/ha | [1]; Preemergence, 500 g ai/ha | [3]; Preemergence, 250 g ai/ha | [3]; Preemergence, 500 g ai/ha | [5]; Postemergence, 125 g ai/ha | [5]; Postemergence, 500 g ai/ha | [5]; Preemergence, 31 g ai/ha | [5]; Preemergence, 62 g ai/ha | [5]; Preemergence, 125 g ai/ha | [5]; Preemergence, 250 g ai/ha | [5]; Preemergence, 500 g ai/ha
10: [3]; Postemergence, 31 g ai/ha | [4]; Postemergence, 250 g ai/ha | [4]; Postemergence, 500 g ai/ha | [4]; Preemergence, 125 g ai/ha
50: [1]; Postemergence, 250 g ai/ha | [2]; Postemergence, 125 g ai/ha | [3]; Postemergence, 250 g ai/ha
40: [2]; Postemergence, 62 g ai/ha | [2]; Preemergence, 125 g ai/ha | [5]; Postemergence, 250 g ai/ha
30: [2]; Preemergence, 31 g ai/ha | [2]; Preemergence, 62 g ai/ha | [5]; Postemergence, 31 g ai/ha
25: [3]; Postemergence, 62 g ai/ha
0: [4]; Postemergence, 31 g ai/ha | [4]; Postemergence, 62 g ai/ha | [4]; Preemergence, 31 g ai/ha | [4]; Preemergence, 62 g ai/ha
98: [2]; Preemergence, 500 g ai/ha
90: [3]; Postemergence, 500 g ai/ha
60: [3]; Preemergence, 125 g ai/ha | [4]; Preemergence, 500 g ai/ha

Cc1cc(=O)n(-c2ccc(C(F)(F)F)cc2)nc1Cc1ccnc(C(F)(F)F)c1 [Compound 2, 5-methyl-2-[4-(trifluoromethyl)phenyl]-6-[[2-(trifluoromethyl)-4-pyridinyl]methyl]-3(2H)-pyridazinone]
80: [1]; Postemergence, 250 g ai/ha | [2]; Postemergence, 125 g ai/ha
20: [2]; Preemergence, 31 g ai/ha | [2]; Preemergence, 62 g ai/ha | [3]; Postemergence, 31 g ai/ha | [3]; Postemergence, 62 g ai/ha | [4]; Postemergence, 250 g ai/ha
15: [4]; Postemergence, 125 g ai/ha
100: [1]; Postemergence, 500 g ai/ha | [1]; Preemergence, 125 g ai/ha | [1]; Preemergence, 250 g ai/ha | [1]; Preemergence, 500 g ai/ha | [2]; Postemergence, 500 g ai/ha | [3]; Postemergence, 250 g ai/ha | [3]; Postemergence, 500 g ai/ha | [3]; Preemergence, 31 g ai/ha | [3]; Preemergence, 62 g ai/ha | [3]; Preemergence, 125 g ai/ha | [3]; Preemergence, 250 g ai/ha | [3]; Preemergence, 500 g ai/ha | [5]; Postemergence, 31 g ai/ha | [5]; Postemergence, 62 g ai/ha | [5]; Postemergence, 125 g ai/ha | [5]; Postemergence, 250 g ai/ha | [5]; Postemergence, 500 g ai/ha | [5]; Preemergence, 31 g ai/ha | [5]; Preemergence, 62 g ai/ha | [5]; Preemergence, 125 g ai/ha | [5]; Preemergence, 250 g ai/ha | [5]; Preemergence, 500 g ai/ha
90: [3]; Postemergence, 125 g ai/ha
95: [2]; Preemergence, 250 g ai/ha | [2]; Preemergence, 500 g ai/ha
25: [1]; Postemergence, 62 g ai/ha | [4]; Postemergence, 500 g ai/ha | [4]; Preemergence, 125 g ai/ha
98: [2]; Postemergence, 250 g ai/ha
75: [2]; Postemergence, 62 g ai/ha
30: [4]; Preemergence, 250 g ai/ha
60: [2]; Postemergence, 31 g ai/ha
10: [4]; Postemergence, 62 g ai/ha
50: [2]; Preemergence, 125 g ai/ha
0: [1]; Preemergence, 62 g ai/ha | [4]; Postemergence, 31 g ai/ha | [4]; Preemergence, 31 g ai/ha | [4]; Preemergence, 62 g ai/ha
35: [4]; Preemergence, 500 g ai/ha
